Test results taken from ChEMBL document CHEMBL5247610, “Discovery of 5-((4-(pyridin-3-yl)pyrimidin-2-yl)amino)-1H-indole-2-carboxamide derivatives as novel anti-cancer agents targeting Nur77” (Eur J Med Chem, 2022).
Active and inactive are the calls of the source. The rule behind the calls is not given here.

Tests used:
[1] = system: HepG2; experiment: Antiproliferative activity against human HepG2 cells assessed as cell viability at 10 uM incubated for 48 hrs by MTT assay; format: functional; details: read-out: Activity
[2] = Cytotoxicity against human L02 cells assessed as cell viability at 10 uM incubated for 48 hrs by MTT assay; format: toxicity, cell-based; details: read-out: Activity
[3] = system: HeLa; experiment: Antiproliferative activity against human HeLa cells assessed as cell viability at 10 uM incubated for 48 hrs by MTT assay; format: functional; details: read-out: Activity
[4] = molecular target: T1, Nuclear receptor subfamily 4immunitygroup A member 1 (Homo sapiens, UniProt P22736); experiment: Binding affinity to Nur77-LBD (unknown origin)
T1 sequence (P22736 whole entry, the tested form may be a part): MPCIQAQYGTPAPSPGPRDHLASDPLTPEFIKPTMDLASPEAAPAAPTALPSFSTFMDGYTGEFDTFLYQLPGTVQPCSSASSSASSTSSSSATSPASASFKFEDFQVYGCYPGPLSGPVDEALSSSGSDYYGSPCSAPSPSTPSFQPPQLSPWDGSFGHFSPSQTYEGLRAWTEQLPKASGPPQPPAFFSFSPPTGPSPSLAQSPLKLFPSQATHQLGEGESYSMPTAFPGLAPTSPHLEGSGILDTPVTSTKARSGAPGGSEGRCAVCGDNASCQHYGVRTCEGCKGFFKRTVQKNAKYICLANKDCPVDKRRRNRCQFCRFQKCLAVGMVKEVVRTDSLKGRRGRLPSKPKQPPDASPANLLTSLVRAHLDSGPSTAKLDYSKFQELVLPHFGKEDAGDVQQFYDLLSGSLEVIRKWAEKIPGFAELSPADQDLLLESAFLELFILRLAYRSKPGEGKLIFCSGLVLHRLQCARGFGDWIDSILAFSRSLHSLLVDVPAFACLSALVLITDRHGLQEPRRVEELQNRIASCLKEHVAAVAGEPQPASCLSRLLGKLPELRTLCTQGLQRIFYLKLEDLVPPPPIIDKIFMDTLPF

[5] = molecular target: T1, Nuclear receptor subfamily 4immunitygroup A member 1; experiment: Binding affinity to Nur77 (unknown origin)
[6] = Toxicity in Zebra fish AB embryo assessed as mortality rate at 1 uM incubated for 24 hrs; parameters: species or system Danio rerio; details: zebrafish, read-out: Activity
[7] = Selectivity index, ratio of IC50 for human L02 cells to IC50 for human HepG2 cells by MTT assay; format: toxicity; details: L02 cells versus HepG2 cells, read-out: Ratio IC50
[8] = Selectivity index, ratio of IC50 for human L02 cells to IC50 for human SMMC-7721 cells by MTT assay; format: toxicity; details: L02 cells versus SMMC-7721 cells, read-out: Ratio IC50
[9] = system: SMMC-7721; experiment: Antiproliferative activity against human SMMC-7721 cells assessed as reduction in cell viability incubated for 48 hrs by MTT assay; format: functional, cell-based; details: SMMC-7721, 48 h
[10] = Toxicity in Zebra fish AB embryo assessed as mortality rate at 0.5 uM incubated for 24 hrs; parameters: species or system Danio rerio; details: zebrafish, read-out: Activity
[11] = Cytotoxicity against human L02 cells assessed as reduction in cell viability incubated for 48 hrs by MTT assay; format: toxicity, cell-based
[12] = system: A549; experiment: Antiproliferative activity against human A549 cells assessed as reduction in cell viability incubated for 48 hrs by MTT assay; format: functional, cell-based; details: A549, 48 h
[13] = system: HepG2; experiment: Antiproliferative activity against human HepG2 cells assessed as reduction in cell viability incubated for 48 hrs by MTT assay; format: functional, cell-based; details: HepG2, 48 h
[14] = Selectivity index, ratio of IC50 for human L02 cells to IC50 for human MDA-MB-231 cells by MTT assay; format: toxicity; details: L02 cells versus MDA-MB-231 cells, read-out: Ratio IC50
[15] = Toxicity in Zebra fish AB embryo assessed as mortality rate at 1 uM incubated for 72 hrs; parameters: species or system Danio rerio; details: zebrafish, read-out: Activity
[16] = system: HeLa; experiment: Antiproliferative activity against human HeLa cells assessed as reduction in cell viability incubated for 48 hrs by MTT assay; format: functional, cell-based
[17] = system: MDA-MB-231; experiment: Antiproliferative activity against human MDA-MB-231 cells assessed as reduction in cell viability incubated for 48 hrs by MTT assay; format: functional, cell-based; details: MDA-MB-231, 48 h
[18] = Selectivity index, ratio of IC50 for human L02 cells to IC50 for human A549 cells by MTT assay; format: toxicity; details: L02 cells versus A549 cells, read-out: Ratio IC50
[19] = system: Huh-7; experiment: Antiproliferative activity against human Huh-7 cells assessed as reduction in cell viability incubated for 48 hrs by MTT assay; format: functional, cell-based; details: Huh-7, 48 h
[20] = Selectivity index, ratio of IC50 for human L02 cells to IC50 for human HeLa cells by MTT assay; format: toxicity; details: L02 cells versus HeLa cells, read-out: Ratio IC50
[21] = Toxicity in Zebra fish AB embryo assessed as mortality rate at 0.5 uM incubated for 72 hrs; parameters: species or system Danio rerio; details: zebrafish, read-out: Activity
[22] = molecular target: T1, Nuclear receptor subfamily 4immunitygroup A member 1; experiment: Binding affinity to pBind-Nur77-LBD (unknown origin) transfected in HEK293T cells co-transfected with pG5-Luc assessed as inhibition of Nur77 transcriptional activity by measuring inhibition of Nur77-driven luciferase activity at 2 uM incubated for 12 hrs by luciferase reporter gene assay; format: cell-based; details: filed as modulator
[23] = Selectivity index, ratio of IC50 for human L02 cells to IC50 for human Huh-7 cells by MTT assay; format: toxicity; details: L02 cells versus Huh-7 cells, read-out: Ratio IC50

COc1cc(NC(=O)c2cc3cc(Nc4nccc(-c5cccnc5)n4)ccc3[nH]2)cc(OC)c1
viability at 10 µM [1]: 40.8%
viability at 48 h, 10 µM [2]: 43.6%
viability at 10 µM [3]: 29.7%

COc1ccc2ccccc2c1/C=N/NC(=O)c1cc2cc(Nc3cc(C)nc4c(OC)cccc34)ccc2[nH]1
Kd [4]: 2.25 µM

CCCCNC(=O)c1cc2cc(Nc3nccc(-c4cccnc4)n3)ccc2[nH]1
viability at 10 µM [1]: 107%
viability at 48 h, 10 µM [2]: 102%
viability at 10 µM [3]: 104%

Nc1ccc(Cl)cc1NC(=O)c1cc2cc(Nc3nccc(-c4cccnc4)n3)ccc2[nH]1
viability at 10 µM [1]: 97.7%
viability at 48 h, 10 µM [2]: 62.3%
viability at 10 µM [3]: 89.5%

COc1ccc(NC(=O)c2cc3cc(Nc4nccc(-c5cccnc5)n4)ccc3[nH]2)c(C)c1
viability at 10 µM [1]: 82.9%
viability at 48 h, 10 µM [2]: 69%
viability at 10 µM [3]: 54.8%

CCN(CC)CCCNC(=O)c1cc2cc(Nc3nccc(-c4cccnc4)n3)ccc2[nH]1
viability at 10 µM [1]: 67.8%
viability at 48 h, 10 µM [2]: 82.6%
viability at 10 µM [3]: 39.4%

COc1ccc(NC(=O)c2cc3cc(Nc4nccc(-c5cccnc5)n4)ccc3[nH]2)cc1OC
viability at 10 µM [1]: 109%
viability at 48 h, 10 µM [2]: 91.9%
viability at 10 µM [3]: 74.4%

COc1cccc(NC(=O)c2cc3cc(Nc4nccc(-c5cccnc5)n4)ccc3[nH]2)c1
viability at 10 µM [1]: 55.2%
viability at 48 h, 10 µM [2]: 68.6%
viability at 10 µM [3]: 30.2%

O=C(NCCN1CCCCC1)c1cc2cc(Nc3nccc(-c4cccnc4)n3)ccc2[nH]1
viability at 10 µM [1]: 53.7%
viability at 48 h, 10 µM [2]: 59.1%
viability at 10 µM [3]: 24.9%

O=C(c1cc2cc(Nc3nccc(-c4cccnc4)n3)ccc2[nH]1)N1CCOCC1
viability at 10 µM [1]: 78.2%
viability at 48 h, 10 µM [2]: 62.3%
viability at 10 µM [3]: 36.8%

O=C(NCc1cccc(F)c1)c1cc2cc(Nc3nccc(-c4cccnc4)n3)ccc2[nH]1
viability at 10 µM [1]: 82.5%
viability at 48 h, 10 µM [2]: 71.1%
viability at 10 µM [3]: 80%

Cc1ccc(NC(=O)c2cc3cc(Nc4nccc(-c5cccnc5)n4)ccc3[nH]2)c(C)c1
viability at 10 µM [1]: 59.8%
viability at 48 h, 10 µM [2]: 48.3%
viability at 10 µM [3]: 38.3%

Nc1ccccc1NC(=O)c1cc2cc(Nc3nccc(-c4cccnc4)n3)ccc2[nH]1
viability at 10 µM [1]: 76.4%
viability at 48 h, 10 µM [2]: 71.1%
viability at 10 µM [3]: 33.2%

O=C(Nc1ccccc1)c1cc2cc(Nc3nccc(-c4cccnc4)n3)ccc2[nH]1
viability at 10 µM [1]: 84.4%
viability at 48 h, 10 µM [2]: 70.9%
viability at 10 µM [3]: 46.4%

Cc1ccccc1NC(=O)c1cc2cc(Nc3nccc(-c4cccnc4)n3)ccc2[nH]1
viability at 10 µM [1]: 90.4%
viability at 48 h, 10 µM [2]: 84.1%
viability at 10 µM [3]: 35.4%

COc1cc(NC(=O)c2cc3cc(Nc4nccc(-c5cccnc5)n4)ccc3[nH]2)cc(OC)c1OC
viability at 10 µM [1]: 83.3%
viability at 48 h, 10 µM [2]: 43.6%
viability at 10 µM [3]: 44.6%

O=C(N/N=C/c1ccncc1)c1cc2cc(Nc3ccnc4ccccc34)ccc2[nH]1
Kd [5]: 1.17 µM

O=C(Nc1cc(Br)ccn1)c1cc2cc(Nc3nccc(-c4cccnc4)n3)ccc2[nH]1
viability at 10 µM [1]: 85.9%
viability at 48 h, 10 µM [2]: 81.1%
viability at 10 µM [3]: 115%

O=C(Nc1ccc(F)c(F)c1F)c1cc2cc(Nc3nccc(-c4cccnc4)n3)ccc2[nH]1
viability at 10 µM [1]: 114%
viability at 48 h, 10 µM [2]: 109%
viability at 10 µM [3]: 99.8%

Cc1ccc(NC(=O)c2cc3cc(Nc4nccc(-c5cccnc5)n4)ccc3[nH]2)c(N)c1
viability at 10 µM [1]: 36.2%
viability at 48 h, 10 µM [2]: 38.3%
viability at 10 µM [3]: 29.5%

CC1=C(O)C(=O)C=C2C1=CC=C1[C@@]2(C)CC[C@@]2(C)[C@@H]3C[C@](C)(C(=O)O)CC[C@]3(C)CC[C@]12C [CELASTROL]
mortality at 24 h, 1 µM [6]: 100%
selectivity ratio [7]: 0.3
selectivity ratio [8]: 0.19
IC50 [9]: 6.04 µM
mortality at 24 h, 0.5 µM [10]: 30%
IC50 at 48 h [11]: 1.12 µM
IC50 [12]: 4.99 µM
viability at 10 µM [1]: 18.7%
IC50 [13]: 3.73 µM
viability at 48 h, 10 µM [2]: 13%
selectivity ratio [14]: 1.04
viability at 10 µM [3]: 49.2%
mortality at 72 h, 1 µM [15]: 100%
IC50 [16]: 1.21 µM
IC50 [17]: 1.08 µM
selectivity ratio [18]: 0.22
IC50 [19]: 4.45 µM
selectivity ratio [20]: 0.87
mortality at 72 h, 0.5 µM [21]: 94%
Activity [22]: Active
selectivity ratio [23]: 0.25

O=C(NCc1ccccc1)c1cc2cc(Nc3nccc(-c4cccnc4)n3)ccc2[nH]1
viability at 10 µM [1]: 113%
viability at 48 h, 10 µM [2]: 94.8%
viability at 10 µM [3]: 82%

O=C(Nc1cncnc1)c1cc2cc(Nc3nccc(-c4cccnc4)n3)ccc2[nH]1
viability at 10 µM [1]: 81.6%
viability at 48 h, 10 µM [2]: 76.2%
viability at 10 µM [3]: 108%

O=C(NC12CC3CC(CC(C3)C1)C2)c1cc2cc(Nc3nccc(-c4cccnc4)n3)ccc2[nH]1
viability at 10 µM [1]: 83.4%
viability at 48 h, 10 µM [2]: 81.3%
viability at 10 µM [3]: 124%

Cc1ccc(NC(=O)c2cc3cc(Nc4nccc(-c5cccnc5)n4)ccc3[nH]2)cc1C
viability at 10 µM [1]: 69.9%
viability at 48 h, 10 µM [2]: 55.8%
viability at 10 µM [3]: 43.4%

Cc1ccc(NC(=O)c2cc3cc(Nc4nccc(-c5cccnc5)n4)ccc3[nH]2)cc1Nc1nccc(-c2cccnc2)n1
viability at 10 µM [1]: 86.5%
viability at 48 h, 10 µM [2]: 79.6%
viability at 10 µM [3]: 95.9%
